# Results taken from the supplement of paper PMC13380429.
# ± gives the standard deviation of the averaged measurements.
# How the values were obtained:
# Conditions in all cases: 72 h
# Calu-3 [1] = experiment: cell viability relative to DMSO; higher = less toxic
# HepG2 [2] = experiment: as above
# U2OS [3] = experiment: as above
# Caco-2 [4] = experiment: as above
# Vero E6 [5] = experiment: as above
# Calu-3 [6] = experiment: drug sensitivity score (DSS) for viability; higher = more toxic; extreme values may be limits of the assay
# HepG2 [7] = experiment: as above
# U2OS [8] = experiment: as above
# Caco-2 [9] = experiment: as above
# Vero E6 [10] = experiment: as above
# HepG2 [11] = experiment: relative viability EC50 (midpoint between 100% and the lowest measured viability); higher = less toxic
# U2OS [12] = experiment: as above
# Vero E6 [13] = experiment: as above
# Caco-2 [14] = experiment: as above
# Calu-3 [15] = experiment: as above
Structure (SMILES),cell viability (Calu-3 [1]; 1 nM),cell viability (Calu-3 [1]; 10 nM),cell viability (Calu-3 [1]; 100 nM),cell viability (Calu-3 [1]; 1000 nM),cell viability (Calu-3 [1]; 10000 nM),cell viability (HepG2 [2]; 1 nM),cell viability (HepG2 [2]; 10 nM),cell viability (HepG2 [2]; 100 nM),cell viability (HepG2 [2]; 1000 nM),cell viability (HepG2 [2]; 10000 nM),cell viability (U2OS [3]; 1 nM),cell viability (U2OS [3]; 10 nM),cell viability (U2OS [3]; 100 nM),cell viability (U2OS [3]; 1000 nM),cell viability (U2OS [3]; 10000 nM),cell viability (Caco-2 [4]; 1 nM),cell viability (Caco-2 [4]; 10 nM),cell viability (Caco-2 [4]; 100 nM),cell viability (Caco-2 [4]; 1000 nM),cell viability (Caco-2 [4]; 10000 nM),cell viability (Vero E6 [5]; 1 nM),cell viability (Vero E6 [5]; 10 nM),cell viability (Vero E6 [5]; 100 nM),cell viability (Vero E6 [5]; 1000 nM),cell viability (Vero E6 [5]; 10000 nM),drug sensitivity score (Calu-3 [6]),drug sensitivity score (HepG2 [7]),drug sensitivity score (U2OS [8]),drug sensitivity score (Caco-2 [9]),drug sensitivity score (Vero E6 [10]),relative viability EC50 (HepG2 [11]),relative viability EC50 (U2OS [12]),relative viability EC50 (Vero E6 [13]),relative viability EC50 (Caco-2 [14]),relative viability EC50 (Calu-3 [15])
CCN1CCN(Cc2ccc(Nc3ncc(F)c(-c4cc(F)c5nc(C)n(C(C)C)c5c4)n3)nc2)CC1 [abemaciclib],106%,108%,89.4%,63%,74.7%,101%,94.8%,84.1%,47.1%,0.9%,107%,107%,108%,87.6%,0.1%,109%,97.2%,90.7%,78.8%,67.8%,101%,100%,95.3%,77.9%,38%,8.1,12.5,7.6,4.2,6.1,0.741 µM,2.16 µM,1.35 µM,–,–
CCc1cc2c(cc1N1CCC(N3CCOCC3)CC1)C(C)(C)c1[nH]c3cc(C#N)ccc3c1C2=O [alectinib],–,–,–,–,–,101%,99.9%,104%,100%,75.9%,102%,100%,102%,95.9%,102%,98.7%,96.8%,110%,103%,106%,96%,94.3%,96.1%,93.7%,89%,–,0.9,0,0,0,> 10 µM,> 10 µM,> 10 µM,> 10 µM,–
COc1c(O)cc2c(c1O)[C@@H]1O[C@H](CO)[C@@H](O)[C@H](O)[C@H]1OC2=O [bergenin],–,–,–,–,–,108%,79.5%,98.8%,88.8%,96.1%,96.7%,97.8%,95.2%,97.7%,97.5%,80.5%,106%,80.2%,83.1%,80.5%,106%,103%,103%,90.5%,101%,–,0,0,4.5,0,> 10 µM,> 10 µM,> 10 µM,> 10 µM,–
O=C(O)c1cc(=O)c2c(OCC(O)COc3cccc4oc(C(=O)O)cc(=O)c34)cccc2o1 [cromoglicic-acid],–,–,–,–,–,101%,95.3%,104%,105%,101%,96.4%,99.4%,98.4%,103%,96.9%,97%,100%,98.6%,102%,92.3%,100%,101%,101%,96.6%,100%,–,0,0,0,0,> 10 µM,> 10 µM,> 10 µM,> 10 µM,–
O=C(CCCN1CC=C(n2c(=O)[nH]c3ccccc32)CC1)c1ccc(F)cc1 [droperidol],–,–,–,–,–,116%,113%,106%,108%,89.1%,–,–,–,–,–,–,–,–,–,–,–,–,–,–,–,–,0,–,–,–,> 10 µM,–,–,–,–
COc1ccc(-c2oc3c(CC=C(C)C)c(O)cc(O)c3c(=O)c2O)cc1 [icaritin],–,–,–,–,–,–,–,–,–,–,–,–,–,–,–,–,–,–,–,–,92.9%,98.9%,96.7%,93.3%,107%,–,–,–,–,0,–,–,> 10 µM,–,–
O.O.O.O.O=C([O-])CC(O)(CC(=O)[O-])C(=O)[O-].[Li+].[Li+].[Li+] [lithium-citrate],–,–,–,–,–,–,–,–,–,–,–,–,–,–,–,–,–,–,–,–,–,–,–,–,–,0,–,0,–,0,–,–,–,–,–
O=C(O)[C@H](O)c1ccccc1 [mandelic-acid],–,–,–,–,–,110%,96.7%,103%,96.4%,102%,98.7%,100%,99.3%,106%,94.8%,91.9%,84.2%,104%,94.4%,91.6%,100%,99.1%,93.8%,97.3%,98.9%,–,0,0,0,0,> 10 µM,> 10 µM,> 10 µM,> 10 µM,–
CN1C(=O)N(C)C2C1N(C)C(=O)N2C (centres undefined) [mebicar],–,–,–,–,–,110%,107%,114%,97.9%,92.2%,104%,104%,99.8%,106%,102%,101%,106%,98.5%,97.9%,95.8%,–,–,–,–,–,–,0,0,0,–,> 10 µM,> 10 µM,–,> 10 µM,–
CC(CNC(=O)c1cccnc1)NC(=O)c1cccnc1 (centres undefined) [nicaraven],–,–,–,–,–,94.7%,106%,90.8%,101%,98.9%,97%,97.2%,98.7%,99.8%,92.1%,97.3%,103%,94.9%,97.6%,89.4%,93.8%,99.1%,101%,97.3%,97.7%,–,0,0,0,0,> 10 µM,> 10 µM,> 10 µM,> 10 µM,–
COC(=O)C1=C(C)NC(C)=C(C(=O)OCC(C)C)C1c1ccccc1[N+](=O)[O-] (centres undefined) [nisoldipine],97.6%,106%,107%,94.6%,103%,100%,98.7%,104%,92.4%,42.6%,101%,106%,102%,99.4%,51.1%,98.2%,109%,99.1%,93.8%,63.1%,100%,101%,102%,94.6%,60.7%,0,4.4,2.6,2.8,2.8,2.1 µM,–,–,–,> 10 µM
CCCCC1C(=O)N(c2ccccc2)N(c2ccccc2)C1=O [phenylbutazone],–,–,–,–,–,–,–,–,–,–,–,–,–,–,–,–,–,–,–,–,–,–,–,–,–,0,0,0,–,0,–,–,–,–,–
Cc1ccnc(NC(=O)C(C)c2cccc(C(=O)c3ccccc3)c2)c1 (centres undefined) [piketoprofen],–,–,–,–,–,103%,89.3%,111%,107%,80.8%,105%,102%,97.7%,103%,95.3%,96.7%,87.3%,91.7%,93.5%,91.5%,98.3%,98.8%,99.8%,106%,96.1%,–,0.3,0,0,0,> 10 µM,> 10 µM,> 10 µM,> 10 µM,–
COc1ccc(Cl)c(Nc2nc3ccccc3nc2NS(=O)(=O)c2cccc(NC(=O)C(C)(C)N)c2)c1 [pilaralisib],93.9%,86%,96.8%,88%,60.2%,96.9%,97.5%,96.9%,86.6%,57.9%,97.9%,94.4%,98.9%,94.1%,81.4%,91.3%,96.4%,109%,93.9%,68.3%,97%,98.7%,93.8%,99.4%,81.2%,3.5,3.8,1.1,2.4,0.6,–,> 10 µM,> 10 µM,–,–
O=C(CCBr)N1CCN(C(=O)CCBr)CC1 [pipobroman],–,–,–,–,–,90.2%,112%,101%,83.7%,102%,97.8%,104%,99.7%,97.7%,94%,115%,115%,97.3%,114%,99%,–,–,–,–,–,–,0,0,0,–,> 10 µM,> 10 µM,–,> 10 µM,–
O=C(O)c1c(Cl)c(Cl)c(Cl)c(Cl)c1-c1c2cc(I)c(=O)c(I)c-2oc2c(I)c(O)c(I)cc12 [rose-bengal],96 ± 5.7%,96.7 ± 3.9%,97.2 ± 4.7%,97.8 ± 12%,54.4 ± 0.71%,98.5 ± 1.1%,92.7 ± 7%,102 ± 3.8%,86.2 ± 5.3%,61.6 ± 4.2%,99.5 ± 3%,101 ± 7.5%,98.8 ± 0.28%,92.65 ± 0.49%,54 ± 5.6%,96.1 ± 5.2%,93.7 ± 6.9%,98.4 ± 7.9%,83.3 ± 0.92%,52.2 ± 6.1%,97.6 ± 4%,99.6%,101 ± 3%,90.5 ± 0.42%,57.1 ± 5.8%,3 ± 1.4,3.8 ± 0.85,3.6 ± 0.42,4.6 ± 0.14,3.7 ± 0.42,–,–,–,–,–
O=C(O)C(O)C(O)C(=O)O (centres undefined) [tartaric-acid],–,–,–,–,–,–,–,–,–,–,–,–,–,–,–,–,–,–,–,–,–,–,–,–,–,0,0,0,–,0,–,–,–,–,–
CC(C)(C)c1cc(/C=C(\C#N)C(N)=S)cc(C(C)(C)C)c1O [tyrphostin-AG-879],101%,97.1%,99.4%,91%,66.8%,93.6%,94.7%,104%,106%,27.5%,98.9%,98.7%,98.7%,98.2%,65.7%,99.3%,94.6%,96.9%,93.2%,50.5%,97.4%,97.5%,94.3%,100%,51%,2.9,3.6,1.8,3.8,2.6,3.56 µM,–,–,–,–
CN[C@H]1CN(c2ccc3c(=O)c(C(=O)O)cn(-c4nccs4)c3n2)C[C@@H]1OC [voreloxin],101%,98.9%,104%,85.6%,58.9%,90.7%,108%,88.5%,72.6%,29.1%,100%,97.6%,103%,98%,38.3%,94.1%,93.2%,99.9%,91.6%,55.1%,96.9%,96.2%,96.7%,88.1%,56.1%,4.1,6.9,3.6,3.7,4,1.29 µM,2.93 µM,–,–,–
Cc1cccc(C)c1NC(=O)/N=C1\CCCN1C [xilobam],–,–,–,–,–,–,–,–,–,–,–,–,–,–,–,–,–,–,–,–,–,–,–,–,–,0,0,0,–,0,–,–,–,–,–
